Test results as given in PubChem BioAssay (NCI).
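How tested: cells in 96-well plates exposed to compound for 48 hours at five concentrations. TGI denotes the concentration required for complete inhibition of growth.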

Key:
Test in all cases: DTP human tumour cell line panel, 48 h
786-0 renal = test system: 786-0 renal
A498 renal = test system: A498 renal
A549 NSCLC = test system: A549 NSCLC
ACHN renal = test system: ACHN renal
BT-549 breast = test system: BT-549 breast
CAKI-1 renal = test system: CAKI-1 renal
COLO 205 colon = test system: COLO 205 colon
DU-145 prostate = test system: DU-145 prostate
EKVX NSCLC = test system: EKVX NSCLC
HCC-2998 colon = test system: HCC-2998 colon
HCT-116 colon = test system: HCT-116 colon
HCT-15 colon = test system: HCT-15 colon
HL-60(TB) leukemia = test system: HL-60(TB) leukemia
HOP-92 NSCLC = test system: HOP-92 NSCLC
HS 578T breast = test system: HS 578T breast
HT29 colon = test system: HT29 colon
IGROV1 ovarian = test system: IGROV1 ovarian
K-562 leukemia = test system: K-562 leukemia
KM12 colon = test system: KM12 colon
LOX IMVI melanoma = test system: LOX IMVI melanoma
M14 melanoma = test system: M14 melanoma
MALME-3M melanoma = test system: MALME-3M melanoma
MCF7 breast = test system: MCF7 breast
MDA-MB-231 breast = test system: MDA-MB-231 breast
MDA-MB-435 = test system: MDA-MB-435
MDA-N = test system: MDA-N
MOLT-4 leukemia = test system: MOLT-4 leukemia
NCI-H226 lung = test system: NCI-H226 lung
NCI-H23 lung = test system: NCI-H23 lung
NCI-H460 lung = test system: NCI-H460 lung
NCI-H522 lung = test system: NCI-H522 lung
NCI/ADR-RES ovarian = test system: NCI/ADR-RES ovarian
OVCAR-3 ovarian = test system: OVCAR-3 ovarian
OVCAR-4 ovarian = test system: OVCAR-4 ovarian
OVCAR-5 ovarian = test system: OVCAR-5 ovarian
OVCAR-8 ovarian = test system: OVCAR-8 ovarian
PC-3 prostate = test system: PC-3 prostate
RPMI-8226 leukemia = test system: RPMI-8226 leukemia
RXF 393 renal = test system: RXF 393 renal
SF-268 CNS = test system: SF-268 CNS
SF-295 CNS = test system: SF-295 CNS
SF-539 CNS = test system: SF-539 CNS
SK-MEL-2 melanoma = test system: SK-MEL-2 melanoma
SK-MEL-28 melanoma = test system: SK-MEL-28 melanoma
SK-MEL-5 melanoma = test system: SK-MEL-5 melanoma
SK-OV-3 ovarian = test system: SK-OV-3 ovarian
SN12C renal = test system: SN12C renal
SNB-19 CNS = test system: SNB-19 CNS
SNB-75 CNS = test system: SNB-75 CNS
SR leukemia = test system: SR leukemia
SW-620 colon = test system: SW-620 colon
T-47D breast = test system: T-47D breast
U251 CNS = test system: U251 CNS
UACC-257 melanoma = test system: UACC-257 melanoma
UACC-62 melanoma = test system: UACC-62 melanoma
UO-31 renal = test system: UO-31 renal

Measured: TGI

CC(=O)OC(=C(C#N)C#N)c1nccnc1C(=O)O
> 100 µM: 786-0 renal | A498 renal | A549 NSCLC | ACHN renal | BT-549 breast | CAKI-1 renal | COLO 205 colon | DU-145 prostate | EKVX NSCLC | HCC-2998 colon | HCT-116 colon | HCT-15 colon | HL-60(TB) leukemia | HOP-92 NSCLC | HS 578T breast | HT29 colon | IGROV1 ovarian | K-562 leukemia | KM12 colon | LOX IMVI melanoma | M14 melanoma | MALME-3M melanoma | MCF7 breast | MDA-MB-231 breast | MDA-MB-435 | MDA-N | MOLT-4 leukemia | NCI-H226 lung | NCI-H23 lung | NCI-H460 lung | NCI-H522 lung | NCI/ADR-RES ovarian | OVCAR-3 ovarian | OVCAR-4 ovarian | OVCAR-5 ovarian | OVCAR-8 ovarian | PC-3 prostate | RPMI-8226 leukemia | RXF 393 renal | SF-268 CNS | SF-295 CNS | SF-539 CNS | SK-MEL-2 melanoma | SK-MEL-28 melanoma | SK-MEL-5 melanoma | SK-OV-3 ovarian | SN12C renal | SNB-19 CNS | SNB-75 CNS | SR leukemia | SW-620 colon | T-47D breast | U251 CNS | UACC-257 melanoma | UACC-62 melanoma | UO-31 renal
